Assay results from patent publication US20180135022A1, “METHOD FOR PRODUCING ARTIFICIAL SYNCYTIOTROPHOBLAST AND PROGENITOR CELL THEREOF” (Sumitomo Chemical Company, Limited, priority 2015, published 2018).
Like-named read-outs stand apart in the source and are kept apart here.

How the values were obtained:
[1] = tested on: cell layer of cells differentiated from KhES-1 cells; details: human, 120 min
Procedure: (§1) After two days from the seeding to the cell culture insert, the electric resistance (Ω) of the cell layer formed on the cell culture insert was measured by using a Millicell ERS-2 (Millipore), and from the obtained measurement value, the electric resistance of the blank in which cells are not seeded was subtracted, and the resultant value was multiplied with the area of the membrane filter (cm^2) to determine a transepithelial electric resistance (TEER, Ω·cm^2).
(§2) The culture medium in the insert and in the multiple well plate was replaced by Hanks' Balanced Salt Solution (HBSS) (no phenol red, Life Technologies), and incubated for 30 minutes to 45 minutes at 37° C. 5% CO2. The culture medium in the insert (apical side) is replaced by HBSS containing a test substance, and cultured at 37° C. under stirring at 300 rpm.
(§3) After 120 minutes from addition of the test substance, 100 μl of HBSS containing the permeated test substance was collected from inside the multiple well plate, and the same amount of HBSS was added to the collected HBSS. By quantifying the test substance in the culture medium in the multiple well plate by LC-MS, the permeability of the test substance in the cell layer was evaluated. A value obtained by dividing the permeation amount of each test substance by the permeation amount of antipyrine is shown as an in vitro relative permeation amount in Table 4.

[2] = tested on: cell layer of cells differentiated from 201B7 cells; details: human, 120 min
Procedure: (§4) The culture medium in the insert and in the multiple well plate was replaced by Hanks' Balanced Salt Solution (HBSS) (no phenol red, Life Technologies), and incubated for 30 minutes to 45 minutes at 37° C. […] The culture medium in the insert (apical side) is replaced by HBSS containing a test substance, and cultured at 37° C. under stirring at 300 rpm.
(§5) After 120 minutes from addition of the test substance, 100 μl of HBSS containing the test substance was collected from inside the multiple well plate, and the same amount of HBSS was added to the collected HBSS. By quantifying the test substance in the culture medium in the multiple well plate by LC-MS, the permeability of the test substance in the cell layer was evaluated. A value obtained by dividing the permeation amount of each test substance by the permeation amount of antipyrine is shown as an in vitro relative permeation amount in Table 5.

term placenta = details: cited from earlier work
[3] = tested on: GCM1-GFP knock-in human ES cells; test: Percentage of GFP positive cells (GCM1 gene expression) after differentiation culturing, Example 2; assay type: cell-based; details: day 6
Procedure: S26948, GW 1929, CGP 7930 and SR 11237 were dissolved in DMSO so that they were respectively 1 mM, and retinoic acid was dissolved in DMSO so that it was 10 mM, and each DMSO solution was added to Basal differentiation medium A.
On day 6 of the culturing using the differentiation medium, cells were washed twice with PBS (Invitrogen), and fixed with 4% paraformaldehyde (Wako) for 15 minutes. After subjecting the cells to a membrane permeabilizing treatment for 5 minutes by using PBS supplemented with 0.3% Triton X-100 (Wako), the cells were washed three times with PBS. Then after blocking the cells for 1 hour to 2 hours with 3% Bovine Serum Albumin (BSA, Sigma-Aldrich), the cells were immunostained by using 5 μg/ml chicken anti-GFP antibody (Abcam), 2 μg/ml goat anti-chicken IgG antibody Alexa 488 (Life technologies) and 1 μg/ml Hoechst 33342 (DOJINDO). For the obtained stained sample, the percentage of the GFP positive cells indicating expression of GCM1 gene was quantified by using a fully automatic image analyzer Arrayscan (Thermo Scientific).

KhES-1 cells = test: Syncytin gene mRNA by real-time PCR after differentiation culturing, Example 3; assay type: cell-based, human; details: single agent added to Basal differentiation medium B (0.1 μM S26948, 10 μM GW 1929, 0.1 μM CGP 7930, 10 nM SR 11237 or 1 nM retinoic acid), day 5; in comparison with Control
Procedure: According to the method described in (1) in Example 2, KhES-1 cells were maintenance cultured, and then subjected to the MEF removing operation. […] S26948, GW 1929, CGP 7930 and SR 11237 were dissolved in DMSO so that they were respectively 100 mM, and retinoic acid was dissolved in DMSO so that it was 10 mM, and each DMSO solution was added to Basal differentiation medium B.
On day 5 of the culturing of the culture using the differentiation medium, total RNA was extracted from cells by using RNeasy Micro Kit (QIAGEN). The obtained total RNA was reverse transcribed by using SuperScript III (Invitrogen), and by real-time PCR using the obtained DNA as a template, TaqMan probe (Applied biosystems) and TaqMan Fast advanced master mix (Applied biosystems), the expression amount of Syncytin gene which is a marker gene of syncytiotrophoblast was examined. For the cells obtained in each culturing, the mRNA amount of Syncytin gene and the mRNA amount of GAPDH gene which is a house keeping gene were determined by real-time PCR. The value obtained by dividing the mRNA amount of Syncytin gene by the mRNA amount of GAPDH gene is defined as a correction value of mRNA amount of Syncytin gene, and taking the Syncytin gene mRNA amount correction value in cells cultured in Basal differentiation medium B (Control) as 1, a Syncytin gene mRNA amount correction value in cells cultured in each of other culture media was shown as a relative expression amount. The operation from the cell culturing to measurement of mRNA amount was repeated three times. In FIG. 2, a standard error of relative expression amount is indicated by an error bar. The relative expression amount having a statistically significant difference with respect to the relative expression amount of Control is marked with asterisks (** means a P value of 0.001 or more and less than 0.01, and *** means a P value of less than 0.001). In comparison with the cells cultured in Basal differentiation medium B (Control), the relative expression amount of Syncytin gene increased in cells that were cultured in a differentiation medium supplemented with either of S26948 (2-1) or GW 1929 (2-2) that is a PPARγ agonist, CGP 7930 (2-3) that is a GABABR positive allosteric modulator, SR 11237 (2-4) that is an RXR agonist or retinoic acid (2-5) that is an RAR agonist.

[4] = tested on: GCM1-GFP knock-in human ES cells; test: Percentage of GFP positive cells at different retinoic acid concentrations, Example 9; assay type: cell-based; details: day 5
[5] = tested on: cell layer of cells differentiated from 201B7 cells; test: Cell layer permeability test on cell culture insert, cells differentiated from human iPS cells, Example 15; details: permeation amount after 120 minutes divided by that of antipyrine; apical side dosing, HBSS, LC-MS; cells from iPS line 201B7
Procedure: as §4, §5

[6] = tested on: cell layer of cells differentiated from KhES-1 cells; test: Cell layer permeability test on cell culture insert, cells differentiated from human ES cells, Example 13; details: permeation amount after 120 minutes divided by that of antipyrine; apical side dosing, HBSS, LC-MS; cells from KhES-1
Procedure: as §1, §2, §3

[7] = Table 4, excerpted from Li, H. et al. Arch. Toxicol. 2013
[8] = Table 5, excerpted from Li, H. et al. Arch. Toxicol. 2013
[9] = 1 μM added to Basal differentiation medium A (3 ng/ml BMP4), in comparison with Control A (0.1% DMSO)

Structure (SMILES)	In vitro relative permeation amount [1]	Ex vivo relative permeation amount (literature value) (term placenta; [7])	increase in the percentage of the GFP positive cells [3, 9]	relative expression amount of Syncytin gene (KhES-1 cells)	further results
Cn1c(=O)c2c(ncn2C)n(C)c1=O [Caffeine]	1.4	1.5			In vitro relative permeation amount [2]: 1.1; Ex vivo relative permeation amount (literature value) (term placenta; [8]): 1.5
Cc1cc(=O)n(-c2ccccc2)n1C [Antipyrine]	1				In vitro relative permeation amount [2]: 1; Ex vivo relative permeation amount (literature value) (term placenta): 1
COC(=O)C(Cc1ccc(OCCn2c(=O)sc3cc(C(=O)c4ccccc4)ccc32)cc1)C(=O)OC [S26948]			about 20%	increased	
CC1(C)CCC(C)(C)c2cc(C3(c4ccc(C(=O)O)cc4)OCCO3)ccc21 [SR 11237]			about 20%	increased	
CC1=C(/C=C/C(C)=C/C=C/C(C)=C/C(=O)O)C(C)(C)CCC1 [retinoic acid]					increase in the percentage of the GFP positive cells ([3]; 1 nM retinoic acid (Table 1 prints 1 μM) in Basal differentiation medium A, compared with Control B (no retinoic acid)): about 6%; increase in the percentage of GFP positive cells ([4]; 1 nM or 10 nM retinoic acid in Basal differentiation medium B, compared with Control without retinoic acid): about 10%; decrease in the percentage of GFP positive cells ([4]; 100 nM or more retinoic acid in Basal differentiation medium B, compared with Control): ≥ 10%
COc1ccc2c(c1)c(CC(=O)O)c(C)n2C(=O)c1ccc(Cl)cc1 [Indomethacin]		0.66			In vitro relative permeation amount [5]: 0.62; In vitro relative permeation amount [6]: 0.72; Ex vivo relative permeation amount (literature value) (term placenta; [8]): 0.66
C[C@H]1O[C@@H](O[C@H]2[C@@H](O)C[C@H](O[C@H]3[C@@H](O)C[C@H](O[C@H]4CC[C@@]5(C)[C@H](CC[C@@H]6[C@@H]5C[C@@H](O)[C@]5(C)[C@@H](C7=CC(=O)OC7)CC[C@]65O)C4)O[C@@H]3C)O[C@@H]2C)C[C@H](O)[C@@H]1O [Digoxin]	0.24	0.13			
CN(CCOc1ccc(C[C@H](Nc2ccccc2C(=O)c2ccccc2)C(=O)O)cc1)c1ccccn1 [GW 1929]			about 20%	increased	
CC(C)(CO)Cc1cc(C(C)(C)C)c(O)c(C(C)(C)C)c1 [CGP 7930]			about 20%	increased	
